Where no end group is shown, it is not given here.
Format: physicochemical
Details: methylene blue assay, dilute solution 0.1 mg/mL in 1x PBS pH 7.4 with Zn(OAc)2, Cys trigger, rt, absorbance at 750 nm, quadruplicate, t1/2=ln(2)/slope

Substance | H2S release half-life (pseudo-first-order) [min]
IAVEEEE [APA 1] | 31
IAVEEEE [APA 3] | 19
IAVEEEE [APA 5] | 13
